Measured values published in PubChem BioAssay (NCI).
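At the GI50, growth is halved. Definition used: TGI = concentration required for complete inhibition of growth.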

Legend:
Experiment in all cases: NCI-60 cell line screen, 384-well format
NCI-H322M lung = tested on: NCI-H322M lung
OVCAR-3 ovarian = tested on: OVCAR-3 ovarian
UACC-62 melanoma = tested on: UACC-62 melanoma
SF-268 CNS = tested on: SF-268 CNS
SN12C renal = tested on: SN12C renal
HCT-15 colon = tested on: HCT-15 colon
HS 578T breast = tested on: HS 578T breast
ACHN renal = tested on: ACHN renal
SF-295 CNS = tested on: SF-295 CNS
BT-549 breast = tested on: BT-549 breast
M14 melanoma = tested on: M14 melanoma
U251 glioblastoma = tested on: U251 glioblastoma
SR leukemia = tested on: SR leukemia
SNB-19 CNS = tested on: SNB-19 CNS
TK-10 renal = tested on: TK-10 renal
MALME-3M melanoma = tested on: MALME-3M melanoma
KM12 colon = tested on: KM12 colon
PC-3 prostate = tested on: PC-3 prostate
NCI/ADR-RES ovarian = tested on: NCI/ADR-RES ovarian
UACC-257 melanoma = tested on: UACC-257 melanoma
NCI-H460 NSCLC = tested on: NCI-H460 NSCLC
LOX IMVI melanoma = tested on: LOX IMVI melanoma
IGROV1 ovarian = tested on: IGROV1 ovarian
MCF7 breast = tested on: MCF7 breast
COLO 205 colon = tested on: COLO 205 colon
HCT-116 colon = tested on: HCT-116 colon
T-47D breast = tested on: T-47D breast
NCI-H522 lung = tested on: NCI-H522 lung
OVCAR-8 ovarian = tested on: OVCAR-8 ovarian
CAKI-1 renal = tested on: CAKI-1 renal
SK-MEL-5 melanoma = tested on: SK-MEL-5 melanoma
OVCAR-4 ovarian = tested on: OVCAR-4 ovarian
MDA-MB-435 melanoma = tested on: MDA-MB-435 melanoma
SK-MEL-28 melanoma = tested on: SK-MEL-28 melanoma
DU-145 prostate = tested on: DU-145 prostate
EKVX NSCLC = tested on: EKVX NSCLC
A549 NSCLC = tested on: A549 NSCLC
OVCAR-5 ovarian = tested on: OVCAR-5 ovarian
SK-OV-3 ovarian = tested on: SK-OV-3 ovarian
NCI-H226 lung = tested on: NCI-H226 lung
MOLT-4 leukemia = tested on: MOLT-4 leukemia
MDA-MB-468 breast = tested on: MDA-MB-468 breast
A498 renal = tested on: A498 renal
SF-539 CNS = tested on: SF-539 CNS
HOP-92 NSCLC = tested on: HOP-92 NSCLC
NCI-H23 lung = tested on: NCI-H23 lung
HT29 colon = tested on: HT29 colon
RPMI-8226 leukemia = tested on: RPMI-8226 leukemia
HL-60(TB) leukemia = tested on: HL-60(TB) leukemia
SNB-75 CNS = tested on: SNB-75 CNS
HCC-2998 colon = tested on: HCC-2998 colon
RXF 393 renal = tested on: RXF 393 renal
HOP-62 NSCLC = tested on: HOP-62 NSCLC
MDA-MB-231 breast = tested on: MDA-MB-231 breast

CC(C)C[C@H](NC(=O)[C@@H](NC(=O)c1cccc(-c2ccccc2)n1)[C@@H](C)O)B(O)O
GI50 (NCI-H322M lung): 2030 nM | TGI (NCI-H322M lung): 11800 nM | GI50 (OVCAR-3 ovarian): 103 nM | TGI (OVCAR-3 ovarian): 228 nM | GI50 (UACC-62 melanoma): 291 nM | TGI (UACC-62 melanoma): 1160 nM | GI50 (SF-268 CNS): 266 nM | TGI (SF-268 CNS): 787 nM | GI50 (SN12C renal): 123 nM | TGI (SN12C renal): 422 nM | GI50 (HCT-15 colon): 556 nM | TGI (HCT-15 colon): 1880 nM | GI50 (HS 578T breast): 143 nM | TGI (HS 578T breast): 294 nM | GI50 (ACHN renal): 239 nM | TGI (ACHN renal): 957 nM | GI50 (SF-295 CNS): 374 nM | TGI (SF-295 CNS): 1540 nM | GI50 (BT-549 breast): 139 nM | TGI (BT-549 breast): 288 nM | GI50 (M14 melanoma): 163 nM | TGI (M14 melanoma): 305 nM | GI50 (U251 glioblastoma): 420 nM | TGI (U251 glioblastoma): 1940 nM | TGI (SR leukemia): 221 nM | GI50 (SNB-19 CNS): 234 nM | TGI (SNB-19 CNS): 870 nM | GI50 (TK-10 renal): 157 nM | TGI (TK-10 renal): 418 nM | GI50 (MALME-3M melanoma): 104 nM | TGI (MALME-3M melanoma): 239 nM | GI50 (KM12 colon): 346 nM | TGI (KM12 colon): 1280 nM | GI50 (PC-3 prostate): 257 nM | TGI (PC-3 prostate): 685 nM | GI50 (NCI/ADR-RES ovarian): 11100 nM | TGI (NCI/ADR-RES ovarian): 24500 nM | GI50 (UACC-257 melanoma): 116 nM | TGI (UACC-257 melanoma): 245 nM | GI50 (NCI-H460 NSCLC): 426 nM | TGI (NCI-H460 NSCLC): 1550 nM | GI50 (LOX IMVI melanoma): 216 nM | TGI (LOX IMVI melanoma): 507 nM | GI50 (IGROV1 ovarian): 560 nM | TGI (IGROV1 ovarian): 2120 nM | GI50 (MCF7 breast): 129 nM | TGI (MCF7 breast): 10700 nM | GI50 (COLO 205 colon): 442 nM | TGI (COLO 205 colon): > 100000 nM | GI50 (HCT-116 colon): 160 nM | TGI (HCT-116 colon): 347 nM | GI50 (T-47D breast): 224 nM | TGI (T-47D breast): 783 nM | GI50 (NCI-H522 lung): 122 nM | TGI (NCI-H522 lung): 249 nM | GI50 (OVCAR-8 ovarian): 374 nM | TGI (OVCAR-8 ovarian): 1520 nM | GI50 (CAKI-1 renal): 492 nM | TGI (CAKI-1 renal): 19000 nM | GI50 (SK-MEL-5 melanoma): 129 nM | TGI (SK-MEL-5 melanoma): 285 nM | GI50 (OVCAR-4 ovarian): 210 nM | TGI (OVCAR-4 ovarian): 569 nM | GI50 (MDA-MB-435 melanoma): 163 nM | TGI (MDA-MB-435 melanoma): 305 nM | GI50 (SK-MEL-28 melanoma): 89.1 nM | TGI (SK-MEL-28 melanoma): 240 nM | GI50 (DU-145 prostate): 432 nM | TGI (DU-145 prostate): 1760 nM | GI50 (EKVX NSCLC): 523 nM | TGI (EKVX NSCLC): 2850 nM | GI50 (A549 NSCLC): 1080 nM | TGI (A549 NSCLC): 16300 nM | GI50 (OVCAR-5 ovarian): 260 nM | TGI (OVCAR-5 ovarian): 940 nM | GI50 (SK-OV-3 ovarian): 560 nM | TGI (SK-OV-3 ovarian): 11000 nM | GI50 (NCI-H226 lung): 11.4 nM | TGI (NCI-H226 lung): 103 nM | GI50 (MOLT-4 leukemia): 21.8 nM | TGI (MOLT-4 leukemia): 56.4 nM | GI50 (MDA-MB-468 breast): 168 nM | TGI (MDA-MB-468 breast): 405 nM | GI50 (A498 renal): 312 nM | TGI (A498 renal): 1850 nM | GI50 (SF-539 CNS): 165 nM | TGI (SF-539 CNS): 308 nM | GI50 (HOP-92 NSCLC): 432 nM | TGI (HOP-92 NSCLC): 1890 nM | GI50 (NCI-H23 lung): 292 nM | TGI (NCI-H23 lung): 1190 nM | GI50 (HT29 colon): 127 nM | TGI (HT29 colon): 274 nM | GI50 (RPMI-8226 leukemia): 11.2 nM | TGI (RPMI-8226 leukemia): 26 nM | GI50 (HL-60(TB) leukemia): 77.6 nM | TGI (HL-60(TB) leukemia): 198 nM | GI50 (SNB-75 CNS): 297 nM | TGI (SNB-75 CNS): 1260 nM | GI50 (HCC-2998 colon): 141 nM | TGI (HCC-2998 colon): 371 nM | GI50 (RXF 393 renal): 147 nM | TGI (RXF 393 renal): 297 nM | GI50 (HOP-62 NSCLC): 237 nM | TGI (HOP-62 NSCLC): 765 nM | GI50 (MDA-MB-231 breast): 327 nM | TGI (MDA-MB-231 breast): 1280 nM
